The record followed here is patent publication EP0143016A1, “Derivatives of 4-(3-alkynyloxy-2-hydroxy-propyl)-piperazin-1-yl-N-phenyl acetamide, their preparation and their therapeutical use” (RIOM LABORATOIRES- C.E.R.M. "R.L.-CERM" - (S.A.), priority 1983, dated 1985).

Molecules are shown by their SMILES.

In assay [1] the test system is chien anesthésié. The assay can be described thus: Hemodynamic effects in the anesthetized dog: coronary arterial flow. It counts as in vivo. Particulars: duration of action (durée d'action), unit not given; dog anesthetized with chloralose; 5 mg.kg^-1 I.V. The procedure: (§1) L'activité anti-angineuse des composés de l'invention a été étudiée chez l'animal en recherchant leurs effets hémodynamiques sur le chien anesthésié, conformément au protocole résumé ci-après.
(§2) Chez le chien anesthésié au chloralose (100 mg.kg^-1 I.V.), les paramètres suivants sont enregistrés : • - fréquence cardiaque à l'aide d'électrodes à E C G sous-cutanée reliées à un cardiotachymètre BECKMAN (dérivation D II) • - débit artériel coronaire enregistré par l'intermédiaire d'un débitmètre électromagnétique STATHAN® • - on étudie aussi l'action antitachycardisante en mesurant son activité inhibitrice des effets chronotropes positifs de l'isoprénaline.
(§3) Les différents paramètres sont enregistrés en continu sur un dynographe BECKMAN®, et on mesure en même temps la durée d'action.
(§4) Les composés de l'invention sont administrés par voie I.V. à la dose de 5 mg.kg^-1.
(§5) Les résultats enregistrés, exprimés sous forme de pourcentage de variation, sont résumés dans le tableau I ci-après.

Assay [2] has as its system effets chronotropes positifs de l'isoprénaline. The assay can be described thus: Antitachycardic action in the anesthetized dog: inhibition of the positive chronotropic effects of isoprenaline. The following applies: duration of action (durée d'action), unit not given; isoprenaline tachycardia; dog anesthetized with chloralose; 5 mg.kg^-1 I.V. It counts as in vivo, chien. As to the method: as §1, §2, §3, §4, §5

The test system of assay [3] is chien anesthésié. The assay can be described thus: Hemodynamic effects in the anesthetized dog: heart rate. The following applies: duration of action (durée d'action), unit not given; dog anesthetized with chloralose; 5 mg.kg^-1 I.V. In kind it is in vivo. As to the method: as §1, §2, §3, §4, §5

As for `CC#CC1(OCC(O)CN2CCN(CC(=O)N(C)c3ccc(Cl)cc3C(=O)c3ccccc3)CC2)CCCCC1` (stereo not drawn) [compound 2], the “DEBIT CORONAIRE D” value in the assay on chien anesthésié [1] is on record as 3. Further, in assay [2], the “ANTITACHY-CARDIE D” value came out at 60. Also, the “FREQUENCE CARDIAQUE D” value in the assay with chien anesthésié [3] amounted to 60.
With `C#CC1(OCC(O)CN2CCN(CC(=O)Nc3ccc(Cl)cc3C(=O)c3ccccc3Cl)CC2)CCCCC1` (stereo not drawn) [compound 4, 4-[3-(1-ethynyl-cyclohexyloxy)-2-hydroxy-propyl]-piperazin-1-yl-N-[4-chloro-2-(2-chlorobenzoyl)-phenyl] acetamide], the “DEBIT CORONAIRE D” value with chien anesthésié [1] was 1. Further, the “ANTITACHY-CARDIE D” value in assay [2] is on record as 35. Moreover, the “FREQUENCE CARDIAQUE D” value with chien anesthésié [3] is reported as more than 15.
On the same counts, the results for `C#CC(C)(OCC(O)CN1CCN(CC(=O)Nc2ccc(Cl)cc2C(=O)c2ccccc2Cl)CC1)c1ccccc1` (stereo not drawn) [compound 6, 4-[3-(α-ethynyl-α-methyl-benzyloxy)-2-hydroxy-propyl]-piperazin-1-yl-N-[2-(2-chlorobenzoyl)-4-chloro-phenyl]acetamide] are 3, 15 and more than 45.
`C#CC1(OCC(O)CN2CCN(CC(=O)N(C)c3ccc(Cl)cc3C(=O)c3ccccc3)CC2)CCCCC1` (stereo not drawn) [compound 7]: the “DEBIT CORONAIRE D” value with chien anesthésié [1] is 2. In assay [2], the “ANTITACHY-CARDIE D” value was found to be 5. Further, the “FREQUENCE CARDIAQUE D” value in the assay on chien anesthésié [3] was more than 15.
For the compound `CC#CC1(OCC(O)CN2CCN(CC(=O)Nc3ccc(Cl)cc3C(=O)c3ccccc3Cl)CC2)CCCCC1` (stereo not drawn) [compound 9], the “DEBIT CORONAIRE D” value in the assay with chien anesthésié [1] amounted to 2. For the same compound, the “ANTITACHY-CARDIE D” value in assay [2] is recorded as 5. The “FREQUENCE CARDIAQUE D” value with chien anesthésié [3] stood at 5.
As to `C#CC(C)(OCC(O)CN1CCN(CC(=O)N(C)c2ccc(Cl)cc2C(=O)c2ccccc2)CC1)c1ccccc1` (stereo not drawn) [compound 10], the “DEBIT CORONAIRE D” value in the assay on chien anesthésié [1] is 0,5. The “ANTITACHY-CARDIE D” value in assay [2] is recorded as 15. In addition, the “FREQUENCE CARDIAQUE D” value in the assay with chien anesthésié [3] came to 15.
